Laboratory results as given in patent US20260137698A1, “CYCLIN-DEPENDENT KINASE 7 INHIBITORS” (JOINT STOCK COMPANY «BIOCAD», priority 2022, published 2026).
Read-outs that look alike come from different tables or passages of the source.

Legend:
CDK7/Cyclin H/MNAT1 = CDK7/Cyclin H/MNAT1 (Homo sapiens, UniProt P50613); assay: Inhibition of CDK7/Cyclin H/MNAT1 kinase activity (ADP-Glo); assay type: biochemical
Outline: (§1)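 Kinase preincubated with compound (11 points, 4-fold steps from 50 μM) for 10 minutes at 25° C. in kinase buffer A with DTT, then reacted 40-60 minutes at 25° C. with ATP and CDKtide, Histone H1 or PDKtide substrate. ADP formation read by ADP-Glo luminescence; IC50 from four-parameter fit.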

[1] = Passive membrane permeability through PAMPA artificial membrane, pH 7.4; assay type: in vitro ADME; conditions: pH 7.4, 10 μmol, 20 hours at room temperature, mean of multiple measurements, read-out: PAMPA passive permeability Pe
Outline: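 Compound at 10 μmol in 0.01 M phosphate buffer pH 7.4 placed in donor wells over lecithin-phospholipid-impregnated PVDF filter, buffer in acceptor; 20 h at room temperature. Donor and acceptor levels measured by RP-HPLC-UV; Pe (cm/s) and membrane retention R (%) calculated.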

CDK9/Cyclin K = CDK9/Cyclin K (Homo sapiens, UniProt P50750); assay: Inhibition of CDK9/Cyclin K kinase activity (ADP-Glo); assay type: biochemical
Outline: as §1

[2] = system: NCl-H82 (small cell lung cancer); assay: Antiproliferative assay on NCl-H82 cells (AlamarBlue, 120 h); assay type: cell-based; conditions: mean value from several measurements
Procedure: The antiproliferative activity of CDK7 inhibitors according to the present invention was evaluated in a cell test using continuous cell cultures: MDA-MB-468 (triple negative breast cancer, ATCC® HTB-132™) and NCl-H82 (small cell lung cancer, ATCC® HTB-175™) using a viable AlamarBlue dye (Thermo Fisher Scientific Inc, order no. DAL1100). The cells were grown in DMEM (PanEco, order no. C330π) and RPMI-1640 (PanEco, order no. C330π), respectively. The basal growth medium was enriched with L-glutamine at a concentration of 2 mM (PanEco, order no. Φ032) and 10% fetal bovine serum (Gibco, order no. 16140-071). The night before measurement, MDA-MB-468 adherent cells were detached from plastic with a solution of trypsin-EDTA (PanEco, order no. Π039π), the solution was then inactivated by a DMEM complete medium, centrifuged at 1000 RPM (Eppendorf, 5804 R), a suspension of cells was prepared in a DMEM complete medium, introduced into 96-well culture plates (Corning Inc, order no. 3599) at 8×10^3 cells in 100 μl of medium per well. The next day, test compounds were dissolved in DMSO and diluted with a DMEM complete medium to a final concentration ranging from 50 μM to 10 pM. Diluted compounds in a volume of 50 μl were introduced into the plate wells with cells in triplicates (the final concentration of DMSO was no more than 1%) and incubated at 37° C. in an incubator with 5% CO2 for 96 hours. NCl-H82 suspension cell line was prepared on the day of the analysis. 10×10^3 cells in 100 μl of an RPMI-1640 complete medium were added to each well of a 96-well plate. The procedure for sample dilution is as described above. Cells with test compounds were incubated at 37° C. in an incubator with 5% CO2 for 120 hours. Following incubation, […] of AlamarBlue reagent (Thermo Fisher Scientific Inc., order no. DAL1100) was added to the wells, the contents of the plates were stirred in an orbital shaker (Biosan, Latvia), then further incubated for 5.5-6 hours at 37° C. in an incubator with 5% CO2. The number of viable cells was detected using the Infinite M200Pro microplate spectrophotometer (Tecan Group Ltd, Switzerland) by way of measuring a fluorescent signal at an excitation wavelength (λEx) of 540 nm and an emission wavelength (λEm) of 590 nm.
IC50 value was calculated using the Magellan software (Tecan Group Ltd, Switzerland) by approximating experimental points by four-parameter model with the optimization by Levenberg-Marquardt: […]

[3] = system: MDA-MB-468 (triple negative breast cancer); assay: Antiproliferative assay on MDA-MB-468 cells (AlamarBlue, 96 h); assay type: cell-based; conditions: Homo sapiens, mean value from several measurements
CDK13/Cyclin K = CDK13/Cyclin K (Homo sapiens, UniProt Q14004); assay: Inhibition of CDK13/Cyclin K kinase activity (ADP-Glo); assay type: biochemical
Procedure: Measurements were carried out in a 5 μl reaction volume using a 384-well plate (Corning Inc., order no. 4513). The analyzed substances were titrated from 50 μM in increments of 4 at 11 concentration points in a normal strength kinase buffer A (Thermo Fisher Scientific Inc, cat. no. PV3189) supplemented with DTT (Sigma, orde. no. 646563-10X.5ML) and prepared with water (Panreac, order no. 701074). Kinase was diluted in an analogous buffer, mixed with test compounds in plate wells and preincubated for 10 minutes at 25° C. Following incubation, a mixture of reaction substrate (CDKtide (SignalChem, order no. C06-58) or Histone H1 (SignalChem, order no. H10-54N) or PDKtide (SignalChem, order no. P10-58) and ATP (SignalChem, order no. V915B) prepared on a normal strength kinase buffer A was added. 1% solution of dimethyl sulfoxide (DMSO) (Sigma-Aldrich, order no. D2438) in the reaction volume was used as a negative control. The final concentrations of all reaction components are shown in Table 5. The plate was centrifuged at 400 rcf (Eppendorf, 5804 R) for 1 minute and incubated for 40-60 minutes at 25° C. The amount of ATP consumed in the kinase reaction was then measured using the ADP-Glo™ detection system. Luminescence signal was measured using Spark 20M tablet multifunction reader (Tecan Group Ltd, Switzerland). IC50 value was calculated using Magellan 7.2 (Tecan Group Ltd, Switzerland) by approximating experimental points by four-parameter model with the optimization by Levenberg-Marquardt:
[formula] • where A is the upper asymptote; D is the lower asymptote; C is IC50, half-maximal inhibitory concentration of kinase, nM; B is the curvature (slope).

[4] = General cytotoxicity on primary differentiated HepaRG cells (72 h); assay type: cell-based; conditions: human, general toxicity, mean value from several measurements
Outline: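 Differentiated HepaRG cells, maintained a week in basal hepatic medium with maintenance/metabolism supplement, were plated at 25×10^3 cells/well overnight. Compounds (200 μM to 0.2 nM) were added for 72 h before viability readout.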

CDK2/Cyclin A = CDK2/Cyclin A (Homo sapiens, UniProt P24941); assay: Inhibition of CDK2/Cyclin A kinase activity (ADP-Glo); assay type: biochemical
Outline: as §1

[5] = Microsomal stability in human liver microsomes (HLM); assay type: in vitro ADME; conditions: 1 μM test compound
Procedure: The procedure for investigating the metabolism of selected compounds was carried out in microsomal fractions of the liver (of rats, mice, humans) in the presence of a phase I metabolism cofactor (NADPH).
The rate of enzymatic decomposition of the compound in liver microsomes in in vitro analysis was determined by keeping a reaction mixture comprising 0.5 mg/ml of pooled human, rat or mouse liver microsomes, 1 μM test compound, 1.5 mM […] (Carbosynth, UK, cat. no. NN108711101) and 1.5 mM magnesium chloride in 0.1 M sodium phosphate buffer (pH 7.4) in a solid-state thermostat at 37° C. (XenoTech, USA, order no. H2610, cat. no. R1000, cat. no. M1000). Incubation was carried out in three replicates.
To determine the stability of compounds under sample preparation conditions, an aliquot in two replicates with the test compound and a microsomal fraction devoid of the NADPH cofactor, which was incubated for 40 minutes at 37° C.
Reactions were stopped at 0, 10, 20, 30 and 40 min time points by way of adding an ice mixture of acetonitrile:methanol (3:1) comprising an internal standard.
Samples were then centrifuged to remove the precipitated protein, supernatants were analyzed using HPLC-MS/MS to determine in vitro clearance (CLint) of the compounds. The Agilent 6410 mass spectrometer (Agilent, USA) combined with the Agilent 1260 Infinity II HPLC liquid chromatograph (Agilent, USA) and a cooling autosampler controlled by MassHunter software (Agilent, USA) was used as an HPLC-MS/MS system. Chromatographic analysis was performed on a C18 reversed-phase HPLC column (Agilent, Waters or equivalent) in a gradient elution mode in a system of mobile phases: 0.1% formic acid in water/0.1% formic acid in acetonitrile, flow rate: 0.5 ml/min, column T=35° C. Mass spectrometric detection was performed with electrospray ionization in multiple reaction monitoring mode. Precursor ions, fragment ions and collision energies for each substance were selected experimentally.
A graph of dependence of the logarithmic ratio between substance's peak area and internal standard's peak area vs time was built. The dependent coefficient of this line corresponded to the elimination rate constant k, on the basis of which the in vitro clearance CLint was calculated:
Based on resulting in vitro clearance CLint values, the microsomal stability of the selected compounds for humans, rats and mice was concluded.

[6] = mean value from several measurements, read-out: IC50 CDK7/Cyclin H/MNAT
[7] = mean value from several measurements, read-out: IC50 CDK9/Cyclin K
[8] = mean value from several measurements, read-out: IC50 CDK13/Cyclin K
[9] = mean value from several measurements, read-out: IC50 CDK2/Cyclin A
[10] = mean of multiple measurement series, ATP 10 μM, read-out: CDK7/Cyclin H/MNAT1 IC50
[11] = mean of multiple measurement series, ATP 50 μM, read-out: CDK9/Cyclin K IC50
[12] = mean of multiple measurement series, ATP 50 μM, read-out: CDK2/Cyclin A IC50

CDK7/Cyclin H/MNAT1, sequence (P50613 whole entry): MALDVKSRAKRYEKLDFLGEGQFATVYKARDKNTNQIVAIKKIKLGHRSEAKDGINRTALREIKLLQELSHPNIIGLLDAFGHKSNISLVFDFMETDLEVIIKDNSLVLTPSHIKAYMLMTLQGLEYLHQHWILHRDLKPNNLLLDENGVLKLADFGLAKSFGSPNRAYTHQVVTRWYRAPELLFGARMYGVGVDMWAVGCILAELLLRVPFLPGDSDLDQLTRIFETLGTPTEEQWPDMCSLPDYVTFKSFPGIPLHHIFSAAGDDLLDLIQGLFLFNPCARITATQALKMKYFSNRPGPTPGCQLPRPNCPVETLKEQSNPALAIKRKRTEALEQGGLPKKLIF
CDK7/Cyclin H/MNAT1, sequence (P51946 whole entry partner): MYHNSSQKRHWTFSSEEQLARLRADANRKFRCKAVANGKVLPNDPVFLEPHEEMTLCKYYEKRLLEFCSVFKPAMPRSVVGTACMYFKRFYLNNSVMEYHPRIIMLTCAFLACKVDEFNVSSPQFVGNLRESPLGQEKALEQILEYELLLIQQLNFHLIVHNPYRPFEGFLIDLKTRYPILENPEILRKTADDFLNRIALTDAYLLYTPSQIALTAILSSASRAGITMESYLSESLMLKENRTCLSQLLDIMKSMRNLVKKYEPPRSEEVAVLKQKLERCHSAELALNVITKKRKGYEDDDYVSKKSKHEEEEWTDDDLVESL
CDK7/Cyclin H/MNAT1, sequence (P51948 whole entry partner): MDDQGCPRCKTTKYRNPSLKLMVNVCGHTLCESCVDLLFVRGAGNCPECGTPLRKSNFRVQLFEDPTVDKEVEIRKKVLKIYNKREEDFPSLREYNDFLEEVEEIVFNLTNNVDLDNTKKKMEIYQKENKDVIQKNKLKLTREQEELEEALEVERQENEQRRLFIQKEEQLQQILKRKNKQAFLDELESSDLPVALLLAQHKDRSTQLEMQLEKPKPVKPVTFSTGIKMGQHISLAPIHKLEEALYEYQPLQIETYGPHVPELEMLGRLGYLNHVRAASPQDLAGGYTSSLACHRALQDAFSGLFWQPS
CDK13/Cyclin K, sequence (Q14004 whole entry): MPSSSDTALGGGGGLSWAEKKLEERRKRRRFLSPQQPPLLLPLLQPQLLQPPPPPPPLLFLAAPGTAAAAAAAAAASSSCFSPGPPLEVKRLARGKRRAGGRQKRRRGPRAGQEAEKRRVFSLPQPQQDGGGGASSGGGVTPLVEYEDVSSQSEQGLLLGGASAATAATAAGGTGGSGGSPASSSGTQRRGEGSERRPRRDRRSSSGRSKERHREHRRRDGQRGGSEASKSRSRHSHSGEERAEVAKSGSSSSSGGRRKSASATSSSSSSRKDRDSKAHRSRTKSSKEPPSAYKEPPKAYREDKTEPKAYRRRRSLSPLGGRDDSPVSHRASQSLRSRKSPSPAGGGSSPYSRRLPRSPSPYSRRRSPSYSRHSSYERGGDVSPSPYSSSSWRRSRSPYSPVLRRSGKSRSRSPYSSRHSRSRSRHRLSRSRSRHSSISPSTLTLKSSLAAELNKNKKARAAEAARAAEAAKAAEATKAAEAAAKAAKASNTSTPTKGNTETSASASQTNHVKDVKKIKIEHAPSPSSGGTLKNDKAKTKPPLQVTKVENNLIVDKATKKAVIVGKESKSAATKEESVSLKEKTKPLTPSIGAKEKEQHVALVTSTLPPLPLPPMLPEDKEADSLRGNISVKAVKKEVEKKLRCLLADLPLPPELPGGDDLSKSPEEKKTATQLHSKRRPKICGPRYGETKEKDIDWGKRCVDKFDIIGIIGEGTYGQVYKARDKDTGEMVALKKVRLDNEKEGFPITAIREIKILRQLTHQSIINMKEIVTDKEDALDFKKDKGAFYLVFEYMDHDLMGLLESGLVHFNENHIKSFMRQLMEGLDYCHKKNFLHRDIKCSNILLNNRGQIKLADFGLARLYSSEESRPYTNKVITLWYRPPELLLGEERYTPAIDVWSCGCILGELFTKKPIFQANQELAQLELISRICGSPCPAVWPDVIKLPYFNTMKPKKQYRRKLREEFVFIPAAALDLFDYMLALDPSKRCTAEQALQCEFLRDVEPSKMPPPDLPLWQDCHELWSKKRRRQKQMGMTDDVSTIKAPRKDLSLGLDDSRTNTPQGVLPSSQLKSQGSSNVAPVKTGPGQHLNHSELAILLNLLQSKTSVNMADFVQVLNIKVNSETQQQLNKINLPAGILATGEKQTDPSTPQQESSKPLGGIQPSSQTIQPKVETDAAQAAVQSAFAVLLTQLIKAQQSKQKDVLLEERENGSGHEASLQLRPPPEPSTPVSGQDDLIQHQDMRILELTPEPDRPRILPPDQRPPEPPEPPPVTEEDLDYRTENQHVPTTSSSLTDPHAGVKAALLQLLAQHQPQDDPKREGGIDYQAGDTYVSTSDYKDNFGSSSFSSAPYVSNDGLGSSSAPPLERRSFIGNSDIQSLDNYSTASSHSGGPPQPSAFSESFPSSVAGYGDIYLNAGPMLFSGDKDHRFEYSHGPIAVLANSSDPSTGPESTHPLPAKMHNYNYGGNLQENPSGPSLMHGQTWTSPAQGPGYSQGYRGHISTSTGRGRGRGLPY
CDK13/Cyclin K, sequence (O75909 whole entry partner): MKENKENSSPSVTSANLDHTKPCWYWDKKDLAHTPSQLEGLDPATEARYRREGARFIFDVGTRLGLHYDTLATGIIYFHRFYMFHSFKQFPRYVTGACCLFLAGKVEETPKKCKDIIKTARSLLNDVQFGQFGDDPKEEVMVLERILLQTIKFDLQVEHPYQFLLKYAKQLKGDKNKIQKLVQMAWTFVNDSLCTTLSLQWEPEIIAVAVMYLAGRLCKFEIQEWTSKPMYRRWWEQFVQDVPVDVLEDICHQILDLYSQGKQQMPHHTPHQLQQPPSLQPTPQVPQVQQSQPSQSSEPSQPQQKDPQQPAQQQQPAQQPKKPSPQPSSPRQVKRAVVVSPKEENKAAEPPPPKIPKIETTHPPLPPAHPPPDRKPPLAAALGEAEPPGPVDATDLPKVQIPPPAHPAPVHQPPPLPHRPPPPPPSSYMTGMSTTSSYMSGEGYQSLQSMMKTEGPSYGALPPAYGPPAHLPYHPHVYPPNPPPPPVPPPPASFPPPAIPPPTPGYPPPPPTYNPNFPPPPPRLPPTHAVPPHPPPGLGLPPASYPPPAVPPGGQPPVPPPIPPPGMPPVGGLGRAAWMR
CDK9/Cyclin K, sequence (P50750 whole entry): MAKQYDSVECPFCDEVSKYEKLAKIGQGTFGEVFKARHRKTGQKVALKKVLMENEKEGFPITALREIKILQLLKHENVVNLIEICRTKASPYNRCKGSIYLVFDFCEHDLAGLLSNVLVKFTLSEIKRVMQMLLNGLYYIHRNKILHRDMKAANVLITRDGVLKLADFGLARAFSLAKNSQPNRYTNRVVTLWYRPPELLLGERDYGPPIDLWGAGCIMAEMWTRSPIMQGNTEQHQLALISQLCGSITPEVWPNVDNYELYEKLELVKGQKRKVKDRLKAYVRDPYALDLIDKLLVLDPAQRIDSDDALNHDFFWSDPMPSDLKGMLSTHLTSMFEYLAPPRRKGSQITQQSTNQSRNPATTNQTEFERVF
CDK9/Cyclin K, sequence (O75909 whole entry partner): as the sequence (O75909 whole entry partner) above

IC50 (CDK7/Cyclin H/MNAT1; [6]) | Papp at 20 h, 10 μmol [1] | IC50 (CDK9/Cyclin K; [7]) | IC50 [2] | IC50 [3] | IC50 (CDK2/Cyclin A; [9]) | In vitro clearance CLint (HLM) [5] | SMILES | IC50 (CDK13/Cyclin K; [8]) | CC50 at 72 h [4] | IC50 (CDK7/Cyclin H/MNAT1; [10]) | IC50 (CDK9/Cyclin K; [11]) | IC50 (CDK13/Cyclin K; mean of multiple measurement series, ATP 10 μM, read-out: CDK13/Cyclin K IC50) | IC50 (CDK2/Cyclin A; [12])
< 5 nM | < 1 ×10⁻⁶ cm/s | 5 to 50 nM | 10 to 100 nM | 10 to 100 nM | > 200 nM | – | Cn1nnc(-c2cc(-c3nc(N[C@H]4CCCNC4)ncc3C(F)(F)F)c[nH]2)n1 [CDK7_1000, 4-[5-(2-methyl-2H-1,2,3,4-tetrazol-5-yl)-1H-pyrrol-3-yl]-N-[(3S)-piperidin-3-yl]-5-(trifluoromethyl)py-rimidin-2-amine] | 5 to 50 nM | 100 to 500 nM | – | – | – | –
< 5 nM | – | > 200 nM | 10 to 100 nM | < 10 nM | > 200 nM | A (Clint < 20 μl/(min · mg of protein)) | Cc1noc(C)c1-n1ccc2c(-c3nc(N[C@H]4CCCNC4)ncc3C(F)(F)F)c[nH]c2c1=O [CDK7_924, 6-(3,5-dimethyl-1,2-oxazol-4-yl)-3-(2-{[(3S)-piperidin-3-yl]amino}-5-(trifluoromethyl)pyrimidin-4-yl)-1H,6H,7H-pyrrolo[2,3-c]pyridin-7-one] | – | > 2000 nM | < 5 nM | 431 nM | – | 7800 nM
< 5 nM | – | 50 to 200 nM | 10 to 100 nM | 10 to 100 nM | > 200 nM | A (Clint < 20 μl/(min · mg of protein)) | FC(F)(F)c1cnc(N[C@H]2CCCNC2)nc1-c1c[nH]c(-c2noc(C3CC3)n2)c1 [CDK7_1103] | – | 100 to 500 nM | – | – | – | –
< 5 nM | 1 to 5 ×10⁻⁶ cm/s | 5 to 50 nM | < 10 nM | < 10 nM | > 200 nM | – | O=c1c2[nH]cc(-c3nc(N[C@H]4CCCNC4)ncc3C(F)(F)F)c2ccn1-c1nccs1 [CDK7_1058, 3-(2-{[(3S)-piperidin-3-yl]amino}-5-(trifluoromethyl)py-rimidin-4-yl)-6-(1,3-thiazol-2-yl)-1H,6H,7H-pyrrolo[2,3-c]pyridin-7-one] | – | 500 to 2000 nM | – | – | – | –
5 to 50 nM | – | > 200 nM | – | – | > 200 nM | A (Clint < 20 μl/(min · mg of protein)) | Cn1ccnc1N1CCCc2c(-c3nc(NC4CCCNC4)ncc3C(F)(F)F)c[nH]c2C1=O (stereo not shown) [CDK7_1177] | – | > 2000 nM | – | – | – | –

SMILES | IC50 (CDK7/Cyclin H/MNAT1; [6]) | Papp at 20 h, 10 μmol [1] | IC50 (CDK9/Cyclin K; [7]) | IC50 [2] | IC50 [3] | IC50 (CDK2/Cyclin A; [9]) | In vitro clearance CLint (HLM) [5] | IC50 (CDK13/Cyclin K; [8]) | CC50 at 72 h [4] | IC50 (CDK7/Cyclin H/MNAT1; [10]) | IC50 (CDK9/Cyclin K; [11]) | IC50 (CDK13/Cyclin K; mean of multiple measurement series, ATP 10 μM, read-out: CDK13/Cyclin K IC50) | IC50 (CDK2/Cyclin A; [12])
CN1CCCc2c(-c3nc(N[C@H]4CCC5(CC5)NC4)ncc3C(F)(F)F)c[nH]c2C1=O [CDK7_1201, 3-[2-({4-azaspiro[2.5]octan-6-yl}amino)-5-(trifluoromethyl)py-rimidin-4-yl]-7-methyl-1H,4H,5H,6H,7H, 8H-pyrrolo[2,3-c]azepin-8-one] | < 5 nM | 5 to 10 ×10⁻⁶ cm/s | 50 to 200 nM | < 10 nM | < 10 nM | > 200 nM | – | 50 to 200 nM | 500 to 2000 nM | < 5 nM | 112 nM | 65 nM | 4500 nM
